Assay results reported in BindingDB's records for patent US12398120 (Bayer Aktiengesellschaft, 2025).

What was measured:
[1] = molecular target: A disintegrin and metalloproteinase with thrombospondin motifs 7 (Homo sapiens, UniProt Q9UKP4); assay: Assay for ADAMTS-7 Enzymatic Activity and Testing of Inhibitory Compounds
Experimental: An additional carboxyl glutamic acid was added after the QXL520 quencher to increase substrate solubility. […] IC50 values were calculated from percentage of inhibition of ADAMTS-7 activity as a function of test compound concentration.

[2] = molecular target: T1, A disintegrin and metalloproteinase with thrombospondin motifs 4 (Homo sapiens, UniProt O75173)
T1 sequence (O75173 whole entry): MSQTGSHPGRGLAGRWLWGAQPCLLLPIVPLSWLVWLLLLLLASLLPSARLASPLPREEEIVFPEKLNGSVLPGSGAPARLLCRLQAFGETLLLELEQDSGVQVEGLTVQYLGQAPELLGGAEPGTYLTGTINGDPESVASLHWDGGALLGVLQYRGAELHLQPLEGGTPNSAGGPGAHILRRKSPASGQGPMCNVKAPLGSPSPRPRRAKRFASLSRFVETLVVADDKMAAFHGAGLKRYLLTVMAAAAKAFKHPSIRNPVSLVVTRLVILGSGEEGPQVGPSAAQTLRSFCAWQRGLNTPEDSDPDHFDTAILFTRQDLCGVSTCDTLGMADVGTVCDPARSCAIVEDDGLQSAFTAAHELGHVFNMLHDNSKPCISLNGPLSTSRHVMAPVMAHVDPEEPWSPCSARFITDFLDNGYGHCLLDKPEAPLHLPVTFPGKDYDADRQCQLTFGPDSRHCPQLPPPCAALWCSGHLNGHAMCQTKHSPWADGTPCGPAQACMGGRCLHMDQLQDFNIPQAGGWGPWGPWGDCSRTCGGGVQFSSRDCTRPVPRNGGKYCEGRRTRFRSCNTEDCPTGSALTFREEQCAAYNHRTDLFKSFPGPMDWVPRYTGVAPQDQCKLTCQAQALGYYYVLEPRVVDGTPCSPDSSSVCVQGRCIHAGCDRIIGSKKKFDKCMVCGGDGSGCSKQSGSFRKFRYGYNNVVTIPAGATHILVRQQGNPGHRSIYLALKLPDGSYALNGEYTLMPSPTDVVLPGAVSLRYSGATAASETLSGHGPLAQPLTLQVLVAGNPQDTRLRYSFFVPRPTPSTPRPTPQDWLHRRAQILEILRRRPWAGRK

Chain of A disintegrin and metalloproteinase with thrombospondin motifs 7 (Q9UKP4 whole entry): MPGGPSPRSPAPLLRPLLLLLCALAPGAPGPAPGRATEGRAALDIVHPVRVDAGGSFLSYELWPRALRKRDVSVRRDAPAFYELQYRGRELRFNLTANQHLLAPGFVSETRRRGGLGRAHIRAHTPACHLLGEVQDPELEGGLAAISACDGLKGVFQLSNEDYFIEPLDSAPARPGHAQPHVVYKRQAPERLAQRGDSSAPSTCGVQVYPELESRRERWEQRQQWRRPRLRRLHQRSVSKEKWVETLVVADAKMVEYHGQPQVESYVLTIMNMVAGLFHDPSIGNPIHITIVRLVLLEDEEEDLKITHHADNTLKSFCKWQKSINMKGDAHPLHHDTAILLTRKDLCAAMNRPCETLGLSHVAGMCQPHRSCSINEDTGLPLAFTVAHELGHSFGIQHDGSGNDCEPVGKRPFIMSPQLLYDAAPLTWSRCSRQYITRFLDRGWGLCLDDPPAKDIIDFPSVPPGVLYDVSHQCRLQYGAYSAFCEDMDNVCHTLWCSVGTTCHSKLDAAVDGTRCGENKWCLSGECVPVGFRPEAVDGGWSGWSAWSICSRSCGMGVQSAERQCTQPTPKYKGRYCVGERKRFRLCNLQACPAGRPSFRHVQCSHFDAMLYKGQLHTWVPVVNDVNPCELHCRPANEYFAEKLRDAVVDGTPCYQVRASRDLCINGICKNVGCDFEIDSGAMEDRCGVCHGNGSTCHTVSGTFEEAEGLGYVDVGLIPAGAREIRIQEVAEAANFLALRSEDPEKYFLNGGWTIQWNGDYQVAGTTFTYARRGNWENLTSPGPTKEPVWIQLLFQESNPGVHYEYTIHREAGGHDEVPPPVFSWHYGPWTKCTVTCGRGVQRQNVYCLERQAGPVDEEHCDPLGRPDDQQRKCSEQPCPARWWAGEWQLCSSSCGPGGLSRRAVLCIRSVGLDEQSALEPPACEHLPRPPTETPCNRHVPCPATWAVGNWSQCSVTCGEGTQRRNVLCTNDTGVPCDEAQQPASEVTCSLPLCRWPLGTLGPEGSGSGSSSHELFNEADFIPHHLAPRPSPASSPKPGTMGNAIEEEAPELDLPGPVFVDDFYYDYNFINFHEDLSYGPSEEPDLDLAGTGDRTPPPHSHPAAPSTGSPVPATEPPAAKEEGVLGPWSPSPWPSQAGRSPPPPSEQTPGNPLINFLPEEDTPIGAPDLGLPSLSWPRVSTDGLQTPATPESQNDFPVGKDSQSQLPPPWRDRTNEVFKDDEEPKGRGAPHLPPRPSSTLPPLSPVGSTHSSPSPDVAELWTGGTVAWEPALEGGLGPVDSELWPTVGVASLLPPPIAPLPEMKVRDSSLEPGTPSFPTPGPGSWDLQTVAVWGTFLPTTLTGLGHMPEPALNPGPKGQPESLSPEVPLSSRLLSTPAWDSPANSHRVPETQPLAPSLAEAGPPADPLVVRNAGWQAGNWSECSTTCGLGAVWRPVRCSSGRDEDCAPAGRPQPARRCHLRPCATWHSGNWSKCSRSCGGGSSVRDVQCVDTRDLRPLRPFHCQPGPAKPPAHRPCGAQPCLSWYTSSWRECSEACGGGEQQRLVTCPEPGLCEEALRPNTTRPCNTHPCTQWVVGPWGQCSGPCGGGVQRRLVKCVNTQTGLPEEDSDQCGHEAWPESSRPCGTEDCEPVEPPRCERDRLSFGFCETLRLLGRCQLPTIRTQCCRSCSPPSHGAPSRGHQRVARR

Structure (SMILES): Cc1ccc(-c2cc(F)ccc2C(=O)NCC2(c3nccn3C)NC(=O)NC2=O)cc1 (single isomer, unassigned) [US12398120, Example 147]
- IC50 [1]: 4.2 nM
- IC50 [2]: 1.7 µM

Structure (SMILES): CC(C)C1(CNC(=O)c2ccc(F)c(F)c2-c2ccc(C(F)(F)F)cc2)NC(=O)NC1=O (single isomer, unassigned) [US12398120, Example 214]
- IC50 [1]: 8.97 nM
- IC50 [2]: 37.5 µM

Structure (SMILES): Cc1ccc(-c2cc(F)ccc2C(=O)NC[C@@]2(C3CC3)NC(=O)NC2=O)cc1 [US12398120, Example 100]
- IC50 [1]: 45 nM
- IC50 [2]: 8.1 µM
